Measured values published in PubChem BioAssay AID328 (DTP/NCI, 2004).
Several values for one entry are separate records, joined by “and”; a condition that tells them apart may be missing. Identical values can stand only once. Toxic doses and inconclusive results are not listed.

Tested on: BDF1 mice, P388 leukemia ip, median survival T/C
Test: NCI In Vivo Anticancer Drug Screen. Data for tumor model P388 Leukemia (intraperitoneal) in B6D2F1 (BDF1) mice
Conditions: endpoint: median survival time, higher = longer survival
Method in brief: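 Antitumour effect was judged in vivo: survival in drug-treated mice, normalised to that of vehicle-dosed controls, gives the reported T/C.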

[1] = dose: 25.0 mg/kg/injection, schedule: Q01DX009 (ip), vehicle: Klucel (hydroxypropylcellulose) (HPC)
[2] = dose: 50.0 mg/kg/injection, schedule: Q01DX009 (ip), vehicle: Klucel (hydroxypropylcellulose) (HPC)
[3] = dose: 100.0 mg/kg/injection, schedule: Q04DX003 (ip), vehicle: saline with Tween-80
[4] = dose: 200.0 mg/kg/injection, schedule: Q04DX003 (ip), vehicle: saline with Tween-80
[5] = dose: 400.0 mg/kg/injection, schedule: Q04DX003 (ip), vehicle: saline with Tween-80
[6] = dose: 100.0 mg/kg/injection, schedule: Q01DX009 (ip), vehicle: Klucel (hydroxypropylcellulose) (HPC)
[7] = dose: 200.0 mg/kg/injection, schedule: Q01DX009 (ip), vehicle: Klucel (hydroxypropylcellulose) (HPC)
[8] = dose: 400.0 mg/kg/injection, schedule: Q01DX009 (ip), vehicle: Klucel (hydroxypropylcellulose) (HPC)
[9] = dose: 25.0 mg/kg/injection, schedule: Q01DX009 (ip), vehicle: saline
[10] = dose: 50.0 mg/kg/injection, schedule: Q01DX009 (ip), vehicle: saline
[11] = dose: 25.0 mg/kg/injection, schedule: Q04DX003 (ip), vehicle: saline with Tween-80
[12] = dose: 50.0 mg/kg/injection, schedule: Q04DX003 (ip), vehicle: saline with Tween-80
[13] = dose: 100.0 mg/kg/injection, schedule: Q01DX009 (ip), vehicle: saline
[14] = dose: 12.5 mg/kg/injection, schedule: Q01DX009 (ip), vehicle: saline with Tween-80
[15] = dose: 12.5 mg/kg/injection, schedule: Q04DX003 (ip), vehicle: saline with Tween-80
[16] = dose: 25.0 mg/kg/injection, schedule: Q01DX009 (ip), vehicle: saline with Tween-80

For `OC1CC2c3ccccc3C1c1cccc[n+]12` (stereo not given), the T/C (dose: 12.5 mg/kg/injection, schedule: Q01DX009 (ip), vehicle: Klucel (hydroxypropylcellulose) (HPC)) was 87 % of control and 91 % of control, the T/C [1] was 104 % of control and the T/C [2] was 91 % of control and 100 % of control. The T/C (dose: 56.25 mg/kg/injection, schedule: Q04DX003 (ip), vehicle: Klucel (hydroxypropylcellulose) (HPC)) was 100 % of control, the T/C (dose: 75.0 mg/kg/injection, schedule: Q01DX009 (ip), vehicle: Klucel (hydroxypropylcellulose) (HPC)) was 100 % of control and the T/C (dose: 112.5 mg/kg/injection, schedule: Q04DX003 (ip), vehicle: Klucel (hydroxypropylcellulose) (HPC)) was 108 % of control.
`Cc1ccc(NC(=O)OCCSC(=O)COc2ccc(Cl)cc2Cl)cc1` was tested, and the T/C [3] was 100 % of control, the T/C [4] was 100 % of control and the T/C [5] was 104 % of control.
In the case of `COC(=O)CCCCC(=O)OCC#CC#CCOC(=O)CCCCC(=O)OC`, the T/C [6] is reported as 104 % of control, the T/C (dose: 100.0 mg/kg/injection, schedule: Q04DX003 (ip), vehicle: Klucel (hydroxypropylcellulose) (HPC)) is reported as 104 % of control and the T/C [7] is reported as 104 % of control. For the same molecule, the T/C (dose: 200.0 mg/kg/injection, schedule: Q04DX003 (ip), vehicle: Klucel (hydroxypropylcellulose) (HPC)) was 104 % of control, the T/C [8] was 109 % of control and the T/C (dose: 400.0 mg/kg/injection, schedule: Q04DX003 (ip), vehicle: Klucel (hydroxypropylcellulose) (HPC)) was 100 % of control.
With `O=S(=O)(O)CCC(CO)(CO)CO` the T/C (dose: 100.0 mg/kg/injection, schedule: Q04DX003 (ip), vehicle: saline) was 100 % of control, the T/C (dose: 200.0 mg/kg/injection, schedule: Q04DX003 (ip), vehicle: saline) was 95 % of control and the T/C (dose: 400.0 mg/kg/injection, schedule: Q04DX003 (ip), vehicle: saline) was 95 % of control.
In the case of `O=C1NC(c2cccc(OCc3ccccc3)c2)Nc2ccccc21` (stereo not given), the T/C (dose: 3.13 mg/kg/injection, schedule: Q01DX009 (ip), vehicle: Klucel (hydroxypropylcellulose) (HPC)) is reported as 97 % of control, the T/C [1] is reported as 94 % of control and 110 % of control and the T/C [2] is reported as 108 % of control. The T/C (dose: 62.5 mg/kg/injection, schedule: Q01DX009 (ip), vehicle: Klucel (hydroxypropylcellulose) (HPC)) was 150 % of control, the T/C [6] was 120 % of control and the T/C (dose: 250.0 mg/kg/injection, schedule: Q01DX009 (ip), vehicle: Klucel (hydroxypropylcellulose) (HPC)) was 166 % of control.
For `CSc1nc(Cl)cc(N2CC2)n1`, the T/C (dose: 0.19 mg/kg/injection, schedule: Q04DX003 (ip), vehicle: saline) was 104 % of control, the T/C (dose: 0.39 mg/kg/injection, schedule: Q01DX009 (ip), vehicle: saline) was 95 % of control and the T/C (dose: 0.39 mg/kg/injection, schedule: Q04DX003 (ip), vehicle: saline) was 109 % of control. The T/C (dose: 0.5 mg/kg/injection, schedule: Q01DX009 (ip), vehicle: saline) was 91 % of control, the T/C (dose: 0.78 mg/kg/injection, schedule: Q01DX009 (ip), vehicle: saline) was 100 % of control and the T/C (dose: 0.78 mg/kg/injection, schedule: Q04DX003 (ip), vehicle: saline) was 100 % of control. The T/C (dose: 1.0 mg/kg/injection, schedule: Q01DX009 (ip), vehicle: saline) was 116 % of control, the T/C (dose: 2.0 mg/kg/injection, schedule: Q01DX009 (ip), vehicle: saline) was 95 % of control and the T/C (dose: 3.6 mg/kg/injection, schedule: Q04DX003 (ip), vehicle: saline) was 100 % of control.
In the case of `CCC1C2CC3C4N(C)c5ccc(Br)cc5C45CC(C2C5O)[N+]3(CC(O)CN2CCCCC2)C1O` (stereo not given), the T/C (dose: 12.5 mg/kg/injection, schedule: Q01DX009 (ip), vehicle: saline) is reported as 106 % of control, the T/C [9] is reported as 115 % of control and the T/C [10] is reported as 89 % of control and 93 % of control.
In the case of `COc1ccc(CC2c3cc(OC)c(OC)cc3CCN2C)cc1OC` (stereo not given), the T/C (dose: 50.0 mg/kg/injection, schedule: Q01DX005 (ip), vehicle: saline with Tween-80) is reported as 90 % of control.
`COc1ccc(C[n+]2cc([O-])on2)cc1` was tested, and the T/C [11] was 100 % of control, the T/C [12] was 100 % of control and the T/C [3] was 109 % of control and 113 % of control. For the same molecule, the T/C [4] was 113 % of control.
With `COC(C/C=C\C=C\CC/C=C/CC(C)/C=C/C(=C\C(=O)O)CC(=O)O)/C(C)=C\C=C(/C)C(=O)O` (stereo not given) the T/C (dose: 1.0 mg/kg/injection, schedule: Q04DX003 (ip), vehicle: saline) was 100 % of control, the T/C (dose: 2.0 mg/kg/injection, schedule: Q04DX003 (ip), vehicle: saline) was 88 % of control and the T/C (dose: 4.0 mg/kg/injection, schedule: Q01DX009 (ip), vehicle: saline) was 87 % of control. The T/C (dose: 4.0 mg/kg/injection, schedule: Q04DX003 (ip), vehicle: saline) was 94 % of control, the T/C (dose: 6.0 mg/kg/injection, schedule: Q04DX003 (ip), vehicle: saline) was 100 % of control and the T/C (dose: 8.0 mg/kg/injection, schedule: Q01DX009 (ip), vehicle: saline) was 87 % of control. For the same molecule, the T/C (dose: 8.0 mg/kg/injection, schedule: Q04DX003 (ip), vehicle: saline) was 108 % of control, the T/C (dose: 16.0 mg/kg/injection, schedule: Q01DX009 (ip), vehicle: saline) was 100 % of control and the T/C (dose: 16.0 mg/kg/injection, schedule: Q04DX003 (ip), vehicle: saline) was 95 % of control.
In the case of `CNS(=O)(=O)c1ccc2c(c1)nc(SC)n2C`, the T/C [3] is reported as 100 % of control, the T/C [4] is reported as 100 % of control and the T/C [5] is reported as 104 % of control.
With `Nc1ccn(C2OC(CO)C(O)C2O)c(=O)c1` (stereo not given) the T/C [9] was 93 % of control, the T/C [10] was 95 % of control and the T/C [13] was 112 % of control. The T/C (dose: 200.0 mg/kg/injection, schedule: Q01DX009 (ip), vehicle: saline) was 102 % of control.
`O=C(O)C(O)C(O)C1[O][Sb][O]C1CO` (stereo not given) was tested, and the T/C (dose: 22.0 mg/kg/injection, schedule: Q04DX003 (ip), vehicle: saline) was 110 % of control, the T/C [10] was 150 % of control and the T/C (dose: 75.0 mg/kg/injection, schedule: Q01DX009 (ip), vehicle: saline) was 155 % of control. For the same molecule, the T/C [13] was 166 % of control, the T/C (dose: 150.0 mg/kg/injection, schedule: Q01DX009 (ip), vehicle: saline) was 155 % of control and the T/C (dose: 150.0 mg/kg/injection, schedule: Q04DX003 (ip), vehicle: saline) was 177 % of control. The T/C (dose: 225.0 mg/kg/injection, schedule: Q01DX009 (ip), vehicle: saline) was 150 % of control and 183 % of control.
With `CCCC(O)Cc1c[nH]c(=O)[nH]c1=O` (stereo not given) the T/C (dose: 6.25 mg/kg/injection, schedule: Q01DX009 (ip), vehicle: saline with Tween-80) was 101 % of control, the T/C [14] was 92 % of control and the T/C [15] was 101 % of control. The T/C [16] was 106 % of control, the T/C [11] was 104 % of control and the T/C (dose: 50.0 mg/kg/injection, schedule: Q01DX009 (ip), vehicle: saline with Tween-80) was 93 % of control. For the same molecule, the T/C [12] was 100 % of control.
With `CSc1ccc2c(c1)C(N1CCN(C)CC1)Cc1ccccc1S2` (stereo not given) the T/C (dose: 6.25 mg/kg/injection, schedule: Q04DX003 (ip), vehicle: saline) was 113 % of control, the T/C (dose: 25.0 mg/kg/injection, schedule: Q04DX003 (ip), vehicle: saline) was 114 % of control and the T/C (dose: 50.0 mg/kg/injection, schedule: Q04DX003 (ip), vehicle: saline) was 107 % of control.
With `O=C(NC(Cc1nn[nH]n1)C(=O)OCc1ccccc1)OCc1ccccc1` (stereo not given) the T/C (dose: 100.0 mg/kg/injection, schedule: Q01DX009 (ip), vehicle: saline with Tween-80) was 100 % of control, the T/C [3] was 111 % of control and the T/C (dose: 200.0 mg/kg/injection, schedule: Q01DX009 (ip), vehicle: saline with Tween-80) was 96 % of control. The T/C [4] was 94 % of control and the T/C [5] was 87 % of control.
`Nc1ccc(CCc2ccc(N)cc2[N+](=O)[O-])c([N+](=O)[O-])c1` was tested, and the T/C [6] was 100 % of control, the T/C [7] was 100 % of control and the T/C [8] was 100 % of control.
For `C=CCCN1CCCC1`, the T/C [14] was 88 % of control, the T/C [15] was 100 % of control and the T/C [16] was 100 % of control. For the same molecule, the T/C [11] was 100 % of control and the T/C [12] was 95 % of control.
`Brc1cc(Br)c(I)c(Br)c1` was tested, and the T/C (dose: 100.0 mg/kg/injection, schedule: Q01DX009 (ip), vehicle: other) was 105 % of control, the T/C (dose: 200.0 mg/kg/injection, schedule: Q01DX009 (ip), vehicle: other) was 100 % of control and the T/C (dose: 400.0 mg/kg/injection, schedule: Q01DX009 (ip), vehicle: other) was 90 % of control.
